Where a name gives a salt, the structure may show the parent alone.
What was measured:
in vivo = conditions: mouse, iv, 10 mg/kg
Method: At 1, 4, 24, and 48 hours, the animals were terminated by CO2 asphyxiation and whole blood was collected via cardiac puncture. The collected blood was immediately placed into EDTA coated tubes (MICROTAINERS® from Becton Dickinson). Subsequently, plasma was prepared by centrifuging the EDTA treated whole blood at 500×g for 10 min. Lipid and drug was assayed via [^3 H]-Cholesteryl hexadecyl ether and I^14 C]-mitoxantrone tracer using a scintillation counter as described above.
An estimation of the amount of mitoxantrone retained in the liposomes that are in the circulation can be made by determining the ratio of mitoxantrone-to-lipid at the indicated time points. This estimation assumes that the level of free drug in the plasma of animals given liposomal mitoxantrone will be negligible.

[1] = Toxic dose range finding (maximum tolerated dose) in tumor-free mice; conditions: mouse, in vivo
Method: (§1) Injections were administered in a volume of 200 μL. In order to achieve this volume for the 20 mg/kg dose, the stock mixture was concentrated using Aquacide II. Survival times of the mice were then monitored over a sixty day time course. Increase in life span (ILS %) was calculated as follows: [formula] Maximum tolerated dose was determined by monitoring the weight loss of the mice over a two week period. If the mice lost greater than 30% of the original weight then the mice are terminated.

L1210 = L1210 anti-tumor activity (survival); assay type: in vivo, BDF1 mice; conditions: for 60 Day Survival / Mean Survival: single; for % ILS (Increase in Life Span): vs untreated control
Method: as §1
The antitumor effects of free mitoxantrone and liposomal mitoxantrone were compared using the L1210 tumor model. L1210 is a murine lymphocytic leukemia. […] This provides identical tumor models for the two organs.

[2] = Change in body weight during efficacy studies
Method: as §1

[3] = tested on: tumor models and human carcinomas; conditions: cited from earlier work

SMILES: O=C1c2c(O)ccc(O)c2C(=O)c2c(NCCNCCO)ccc(NCCNCCO)c21 [Free Mitoxantrone, mitoxantrone hydrochloride]
- AUC (in vivo): 11.4 ng·h/mL
- MTD [1]: 10 mg/kg
- maximum therapeutic dose (L1210; 10^4 L1210 cells i.v., treated 24 h later): 10 mg/kg
- 60 Day Survival (L1210; drug dose 5 mg/kg): 0/5
- Mean Survival (L1210; drug dose 5 mg/kg): 13.6 days
- % ILS (Increase in Life Span) (L1210; drug dose 5 mg/kg): 58%
- 60 Day Survival (L1210; drug dose 10 mg/kg): 0/5
- Mean Survival (L1210; drug dose 10 mg/kg): 16.6 days
- % ILS (Increase in Life Span) (L1210; drug dose 10 mg/kg): 93%
- 60 Day Survival (L1210; drug dose 20 mg/kg): 0/5
- Mean Survival (L1210; drug dose 20 mg/kg): 12.6 days
- % ILS (Increase in Life Span) (L1210; drug dose 20 mg/kg): 47%
- maximum % increase in life span (L1210; maximum over the doses tested): 93%
- body weight loss at nadir ([2]; L1210-bearing mice, free 10 mg/kg, liposomal 20 mg/kg, day 12 to 13): ~30%
- MTD ([2]; mouse, in vivo): 10 mg/kg
- short and long term toxicity compared with doxorubicin [3]: lower short and long term toxicity than doxorubicin
- toxic side effect [3]: myelosuppression

SMILES: COc1cccc2c1C(=O)c1c(O)c3c(c(O)c1C2=O)C[C@@](O)(C(=O)CO)C[C@@H]3O[C@H]1C[C@H](N)[C@H](O)[C@H](C)O1 [doxorubicin]
- toxic side effect [3]: dose limiting cardiotoxicity

— US5858397A, “Liposomal formulations of mitoxantrone” (priority 1995, dated 1999)
